The subject of one data set is 51Cr-labeled monocytes. The data set is described as follows: Monocyte recruitment to inflamed joints in rat adjuvant arthritis. It is filed as in vivo. Particulars: 50 mg/kg i.v.; for Accumulation of 51Cr-labeled Monocytes (mean ± SEM): 2 h. On the procedure: Rat adjuvant arthritis is characterized by integrin-mediated migration of ^51 Cr-labeled monocytes and ^111 In-labeled neutrophils into the inflamed synovium, which attains maximum between days 14 and 21 after the immunization. This model of human rheumatoid arthritis was used to assess in vivo effects of Ajoene on integrins that are known to be modulated by Ajoene in vitro.
Adjuvant arthritis was induced in 6-8 week old inbred male Lewis rats by immunization on the lower back with 0.5 mg Mycobacterium butyricum (Difco Laboratories, Inc., Detroit, Mich.) in 0.05 ml mineral oil in two sites subcutaneously at the base of the tail. All the animals developed polyarticular arthritis between days 11 and 13 after immunization. For clinical scoring, 0-4 points were assigned per limb and tail, based on the severity of erythema, swelling, and limitation of movement (the maximal possible score was 20).
Rat blood monocytes and neutrophils for migration studies were obtained by the hydroxyethyl starch (HES) exchange transfusion technique. The total blood volume of a donor rat was exchanged using 50 ml 6% HES solution in saline (DuPont Chemical Co., Dorval, Canada). After recovery of 40-45 ml blood/HES perfusate, the red cells were allowed to sediment (1 g) and the leukocyte-rich plasma was harvested. The leukocytes were recovered by centrifugation, resuspended in calcium-magnesium-free Tyrode's solution supplemented with 10% platelet-poor plasma (TS-PPP), and centrifuged in a discontinuous 63%/74% gradient of isotonic Percoll (Pharmacia Fine Chemicals, Dorval, Canada). The top layer, containing mononuclear cells (MN), and the cells in the 63%/74% interface, containing neutrophils, were collected, washed, and resuspended in TS-PPP. To obtain purified monocytes, the osmolality of the MN suspension was increased by adding 9% NaCl, and the suspension was centrifuged in a 40%/55%/58% Percoll gradient; monocytes were harvested at 40%/55% and […] interfaces, washed, and resuspended in TS-PPP.
Thereafter, monocytes (10^7 cells/ml) were labeled with 75 microCurie/ml of Na2^51 CrO4 (Amersham, Oakville, Canada) at 37° C. for 30 min. Neutrophils (10^7 cells/ml) were labeled with 1 microCurie/ml of ^111 In oxine (Amersham) for 10 min. Both populations were washed to remove excess labeled material and checked for viability and purity. The viability of either cell population used in the experiments was in excess of 95% (as double-checked by Trypan blue exclusion and neutral red staining). The separation procedure described above ordinarily produced populations that contained no less than 90% monocytes and no less than 95% neutrophils. […]

Data set [1] relates to SupT1LAV-BRU cells / SupT1 cells (HIV-1LAV-BRU). The experiment in a line: HIV-induced syncytium formation, SupT1LAV-BRU donor with SupT1 recipient. It is filed as cell-based. Particulars: Human immunodeficiency virus 1, SUP-T1, 16 h, read-out: IC50 of Ajoene, syncytium formation. The procedure:
Chronically infected and uninfected cell lines (HIV donors and targets, respectively) were maintained as suspension cultures in RPNI-1640 medium supplemented with 10% (v/v) heat-inactivated fetal calf serum, 50 micrograms/ml gentamycin and 2 mM L-glutamine. HIV donors used were (1) a cloned population of H9 cells harboring the genome of HIV-1RF (H9RF cells); and (2) a cloned population of SupT1 cells harboring the genome of HIV-1LAV-BRU (SupT1LAV-BRU cells). To assess the effect of Ajoene on syncytium formation, the donors were mixed with their respective recipients, H9 and SupT1, at a ratio of 1:2 in 96-well flat-bottomed plates (3×10^5 cells per well). Log 10 dilutions of Ajoene were then introduced into the wells, and the cells were cocultured for 16 h. Control wells received the vehicle of Ajoene. By the end of the incubation period syncytia were counted, and the values of IC50 for Ajoene were calculated by plotting relative amounts of syncytia (percent of the syncytia formed in the absence of the compound) against Ajoene concentration.

The test system of data set [2] is MOLT-4 cells / syncytiotrophoblasts. The data set is described as follows: Adhesion of uninfected MOLT-4 clone 8 cells to syncytiotrophoblasts. It is filed as cell-based, human. From the text:
Human fetal placental epithelial cells, known as syncytiotrophoblasts, were organized in a monolayer and exposed to HIV-infected lymphocytic cells and, as a negative control, to uninfected cells of the same type. This experimental system, closely simulating the actual conditions under which syncytiotrophoblasts would be exposed to HIV-infected cells in vivo, was used to assess integrin-modulating effects of Ajoene.
(§1) MOLT-4 clone 8 cells were labeled with calcein-AM, pretreated with different concentrations of Ajoene (0-200 micromoles per liter) and incubated with cultured term syncytiotrophoblast cells at 37° C. for one hour in the presence of Ajoene. Adhesion was measured directly as fluorescence units after background correction. Controls included measuring adhesion in the presence of the appropriate carrier solvent.

Data set [3] deals with MOLT-4 cells and syncytiotrophoblasts. In kind it is cell-based, human. The procedure:
as §1
In order to assess the ability of Ajoene to inhibit lymphocyte-mediated HIV infection of syncytiotrophoblasts, HIV-1LBi -infected MOLT-4 cells were added to adherent cultures of uninfected syncytiotrophoblasts in the presence and absence of Ajoene. Various additional control conditions were also established. First, some wells received filtered (0.45 micrometer) supernatant of cell-free HIV from infected cell cultures. Yet other negative controls included syncytiotrophoblasts cultured alone and syncytiotrophoblasts cultured with uninfected MOLT-4 cells. After 24 hours, the cocultures were washed to removed unbound lymphocytes, fixed, permeabilized, stained for viral core antigens (p24 and p55), and viewed under a fluorescence microscope.

The subject of a further data set is GP IIb/IIIa. Conditions: cited from earlier work.

The text below walks through data of patent publication US6177475A, “Methods of using integrin modulators for treatment of inflammation” (priority 1997, dated 2001).

As to `C=CCSSC=CC[S+]([O-])CC=C` (stereo not drawn) [Ajoene, 4,5,9-trithiadodeca-1,6,11-triene-9-oxide], the “inhibition of monocyte recruitment to the talar joints” value in the data set on 51Cr-labeled monocytes is recorded as ~ 50%. In addition, the “Accumulation of 51Cr-labeled Monocytes (mean ± SEM)” value with 51Cr-labeled monocytes (talar joint, P < 0.006 vs control) was 25,078 cpm per sample; with 51Cr-labeled monocytes (tarsal joint, N.S.), 10,365 cpm per sample; in the data set on 51Cr-labeled monocytes (vertebral joints, P = 0.079), 2,737 cpm per sample. Further, the IC50 was around 0.005 µM in data set [1] and 60 µM in data set [2] (Homo sapiens, MOLT-4, 1 hour, 37° C., cells not infected with HIV). The “inhibition of adhesion of MOLT-4 cells to syncytiotrophoblasts” value in data set [2] (200 micromoles per liter) is 100%. In addition, in data set [3] (HIV infection assay (lymphocyte-mediated), 200 micromoles per liter), the “toxic effects to the cells” value is recorded as “without toxic effects to the cells”. In addition, the “toxic effects on cells” value in data set [3] (adhesion assay, up to 200 micromoles per liter) is “Without any toxic effects on cells”. In addition, the “toxic effects in cell-free HIV infection” value in data set [3] (cell-free HIV, 200 micromoles per liter and lower concentrations tested) is on record as “without toxic effects”. Besides, the “inhibition of platelet aggregation by inactivation of GP IIb/IIIa” value in the data set with GP IIb/IIIa (Apitz-Castro et al., 1986) was “inhibit platelet aggregation by inactivating allosterically the platelet integrin, GP IIb/IIIa”. For the same compound, the “reversibility of integrin inhibition” value with GP IIb/IIIa is recorded as “reversible”.
